Data from a melting point compilation (Tetko et al.).

Nc1ccc(N2CCN(S(=O)(=O)C(F)F)CC2)cc1
melting point: 110 to 112 °C

CCNC(=O)N1CCc2c(cccc2-n2nnc(C(=O)O)c2C)C1
melting point: 200 to 202 °C

CC(=O)c1ccc(S(=O)(=O)NCc2ccco2)cc1
melting point: 107 to 109 °C

CCOC(=O)c1c(CC(C)C)csc1NC(=O)CCl
melting point: 98 to 100 °C

CCCS(=O)(=O)N1CCCC(C(=O)O)C1 (centres undefined)
melting point: 122 to 124 °C

Cc1cccc2c1CN(C(=O)OC(C)(C)C)CCN2
melting point: 95 to 97 °C

Sc1nnnn1C1CCOCC1
melting point: 154 to 156 °C

O=C(O)COc1ccccc1-c1ccccc1
melting point: 102 to 104 °C

Nc1ccc2oc(-c3cc(F)ccc3Br)nc2c1
melting point: 159 to 161 °C

CCC1(C(=O)O)CCN(C(=O)c2ccccc2)CC1
melting point: 154 to 156 °C

Cc1ccc(-n2nc(C(=O)O)c3c2CCC3)c(F)c1
melting point: 219 to 221 °C

Clc1ccc(C(Cl)c2ccc(Cl)cc2)cc1
melting point: 57 to 59 °C

O=C(O)c1ccnc(Cl)c1I
melting point: 218 to 220 °C

CC(C)OC(=O)N1CCC(C(=O)O)(C(F)(F)F)C1 (centres undefined)
melting point: 98 to 100 °C

COC(=O)c1cc(OC)c(OC(F)F)cc1N
melting point: 89 to 91 °C

O=C(O)c1cnn(-c2ccccc2)c1
melting point: 175 to 182 °C

O=C(O)c1cc(Cl)c2c(c1)OCCO2
melting point: 251 to 253 °C

Cc1cc(N)nn1-c1ccc(Cl)cc1Cl
melting point: 101 to 103 °C

O=C(O)c1ccccc1NS(=O)(=O)c1ccc(F)cc1
melting point: 165 to 167 °C

O=C(O)c1ccc(S(=O)(=O)C(F)F)cc1
melting point: 232 to 234 °C

COc1ccccc1CNc1nc(-c2ccc(C)cc2)cs1
melting point: 96 to 98 °C

COc1ccc2cc(C=CC#N)ccc2c1
melting point: 124 to 126 °C

CC1(C)C(=O)NC(=O)N1CC(N)=O
melting point: 154 to 156 °C

COc1ccc(S(=O)(=O)NC2CC2)cc1N
melting point: 119 to 121 °C

Nc1cc(Cl)ccc1S(N)(=O)=O
melting point: 142 to 144 °C

NS(=O)(=O)c1cc(Br)cnc1Cl
melting point: 119 to 121 °C

O=C1CNC2(CCCCC2)C(=O)N1
melting point: 184 to 186 °C

O=C(Nc1ccccn1)C1CCNCC1
melting point: 113 to 115 °C

Nc1nc2ccc(S(=O)(=O)N3CCCC3)cc2s1
melting point: 225 to 227 °C

Cc1csc(-c2cnc(C)[nH]c2=O)n1
melting point: 302 to 304 °C

Cc1c(I)cccc1C(=O)O
melting point: 113 to 115 °C

Cc1c(C(=O)O)oc2c(F)cc(F)cc12
melting point: 339 to 341 °C

O=C(NC1(C(=O)O)CCCC1)c1ccc2[nH]ncc2c1
melting point: 285 to 287 °C

NS(=O)(=O)c1ccc(O)c(C(=O)O)c1
melting point: 233 to 235 °C

O=C(O)C(=O)NCC(F)F
melting point: 105 to 107 °C

Cn1cnn(CC(=O)O)c1=O
melting point: 172 to 174 °C

Cc1cccc(C2(C(=O)O)CCC2)c1
melting point: 95 to 97 °C

Cc1ccccc1-n1nc(-c2ccccc2)cc1N
melting point: 109 to 111 °C

CC=Cc1ccc(OCC(=O)OC)c(OC)c1
melting point: 68 to 70 °C

O=C(O)c1cc(Br)cnc1S
melting point: 239 to 241 °C

O=C(CN1CCNCC1)Nc1ccc(F)cc1
melting point: 72 to 81 °C

CCOc1ccc(Nc2nnc(S)s2)cc1
melting point: 170 to 172 °C

Fc1cccc(F)c1-n1ccc(CCl)n1
melting point: 39 to 41 °C

O=C(O)c1cccc(S(=O)(=O)N2CCN(c3ccc(F)cc3)CC2)c1
melting point: 129 to 131 °C

CC(=O)Nc1ccccc1OCc1ccc(C(=O)O)o1
melting point: 179 to 181 °C

O=C(O)c1csc(Br)c1
melting point: 137 to 139 °C

NC(CC(=O)O)c1ccc(-c2ccccc2)cc1 (centres undefined)
melting point: 238 to 240 °C

CNC(=O)OCC(F)(F)F
melting point: 35 to 37 °C

Nc1ccc(S(=O)(=O)Nc2ccccc2Cl)cc1
melting point: 159 to 161 °C

CCCc1cc(C(=O)O)sc1C
melting point: 94 to 96 °C

Cc1c(C(=O)O)sc2cccc(F)c12
melting point: 230 to 232 °C

O=Cc1ccc(-c2ccncc2)cc1F
melting point: 107 to 109 °C

Oc1ccc(Sc2ccncc2)cc1
melting point: 239 to 241 °C

O=C(O)c1cc(F)c(F)cc1C(=O)O
melting point: 158 to 160 °C

CCc1ccc(-c2nn(-c3ccccc3C)cc2C(=O)O)cc1
melting point: 177 to 179 °C

N#CC1CSCCN1 (centres undefined)
melting point: 81 to 83 °C

COc1cc(F)c(C(C)=O)cc1OC
melting point: 92 to 94 °C

NC(=O)c1cc(Cl)nnc1Cl
melting point: 176 to 178 °C

CCOC(=O)c1ccn[nH]1
melting point: 159 to 161 °C

N=C(N)c1ccc(N2CCCC2)cn1
melting point: 209 to 211 °C

Nc1nnc(C23CC4CC(CC(C4)C2)C3)s1
melting point: 197 to 199 °C

Cc1c(-c2ccccc2)nc2ccccc2c1C(=O)O
melting point: 235 to 237 °C

CC(=O)NCc1ccc(C(=O)O)cc1
melting point: 188 to 190 °C

CC(C)CNC(=O)c1cc(N)ccc1Cl
melting point: 109 to 111 °C

O=C(O)C(Oc1ccc(Cl)c(Cl)c1)c1ccccc1 (centres undefined)
melting point: 59 to 61 °C

Nc1nnc(CO)s1
melting point: 169 to 171 °C

CCOC(=O)c1cnc2ccccc2c1Cl
melting point: 37 to 39 °C

NNS(=O)(=O)c1ccc(Cl)c([N+](=O)[O-])c1
melting point: 126 to 128 °C

Cc1nc2nc(N)nn2c(C)c1CC(=O)O
melting point: 260 to 264 °C

Cc1nc(C=O)c2ccccn12
melting point: 115 to 117 °C

CC1(c2ccc(F)cc2)NC(=O)N(CC(=O)O)C1=O (centres undefined)
melting point: 167 to 169 °C

Clc1cc(-c2nnco2)ccn1
melting point: 109 to 111 °C

CC(C)C(=O)N1CCC(C(=O)O)CC1
melting point: 102 to 104 °C

CC(=O)CC(=O)Nc1ccc(F)c(F)c1
melting point: 92 to 94 °C

O=C(O)c1sccc1-c1ccc(F)cc1
melting point: 199 to 201 °C

Oc1cccc(-n2cnnn2)c1
melting point: 174 to 176 °C

COC(=O)c1c(NC(=O)OC(C)(C)C)c[nH]c1C
melting point: 109 to 111 °C

N#CC(N)Cc1ccccc1 (centres undefined)
melting point: 39 to 41 °C

O=c1[nH]c(-c2ccc(Cl)s2)nc2c1CCC2
melting point: 276 to 278 °C

CC(C)c1cc(C(=O)O)nn1-c1ccccc1
melting point: 137 to 139 °C

CSc1cc2c(cc1C=O)OCCO2
melting point: 112 to 114 °C

O=C1NC(=O)C2CC12 (centres undefined)
melting point: 94 to 96 °C

Fc1cccc(F)c1-n1c(S)nc2ccccc21
melting point: 255 to 257 °C

O=C(O)c1cc(=O)[nH]c2cc(F)ccc12
melting point: 323 to 325 °C

Cc1occc1-c1nnc(S)n1Cc1ccccc1
melting point: 134 to 136 °C

COC(=O)c1cc(F)cc(Br)c1N
melting point: 36 to 38 °C

O=C(O)Cc1ccc(F)c(Br)c1
melting point: 64 to 66 °C

Cc1ccccc1CNc1ccc2[nH]c(=O)[nH]c2c1
melting point: 204 to 206 °C

COCCNC(=S)NN
melting point: 85 to 87 °C

NCc1ccccc1CN1CCC(O)CC1
melting point: 83 to 85 °C

Cc1sc2nc(S)n(C(C)C)c(=O)c2c1C
melting point: 270 to 272 °C

Cc1nc(Cc2ccccc2)sc1C(=O)O
melting point: 236 to 238 °C

O=C(O)c1ccc(COc2ccc3ccccc3c2)o1
melting point: 171 to 173 °C

CC1CCC(NC(=O)CCl)CC1 (centres undefined)
melting point: 152 to 155 °C

COc1ccc2cc[nH]c(=O)c2c1
melting point: 201 to 203 °C

O=S(=O)(Cl)c1ccc(OCc2ccccc2)cc1
melting point: 95 to 97 °C

Fc1cc(Br)cc2cc(Br)cnc12
melting point: 161 to 163 °C

O=c1c2sccc2nc(S)n1Cc1ccccc1
melting point: 249 to 251 °C

COC(=O)N1CCc2ccccc21
melting point: 72 to 74 °C

Nc1cc(-c2cccc(C(F)(F)F)c2)no1
melting point: 89 to 91 °C

O=C(O)c1cccnc1Oc1ccccc1Br
melting point: 166 to 168 °C

COC(=O)c1cc2cccc(Br)c2o1
melting point: 76 to 78 °C

O=C(CC(F)(F)F)c1ccc(Br)cc1
melting point: 73 to 75 °C

COC(=O)c1cnc[nH]1
melting point: 154 to 156 °C

CCOC(=O)c1cn[nH]c1C(F)F
melting point: 64 to 66 °C

Clc1nc(CN2CCOCC2)nc2scc(-c3cccs3)c12
melting point: 105 to 107 °C

COC(=O)c1ncccc1F
melting point: 81 to 83 °C

O=C1Nc2cc(I)ccc2C1=O
melting point: 264 to 266 °C

N#Cc1cccc(NC(=O)c2cccc(N)c2)c1
melting point: 163 to 165 °C

Cc1nc(C2CCCC2)sc1C(=O)O
melting point: 185 to 187 °C

O=C(O)c1ccn(-c2ccccc2F)n1
melting point: 122 to 124 °C

N#Cc1cccc(/C=C/C(=O)O)c1
melting point: 246 to 248 °C

Nc1ccc(-c2nnco2)cc1
melting point: 155 to 157 °C

O=C(O)CNC(=O)c1ccc(Oc2ccccc2)cc1
melting point: 156 to 158 °C

Cc1cc(C(=O)CCl)c(C)n1C(C)C
melting point: 45 to 47 °C

COC(=O)c1nc(Cl)c2ccccc2c1OC
melting point: 103 to 105 °C

O=C(O)c1csc(C(=O)CCl)c1
melting point: 147 to 149 °C

Cc1ccc2c(C3=CCNCC3)c[nH]c2c1
melting point: 178 to 180 °C

O=C(O)Cn1nnc(-c2ccco2)n1
melting point: 216 to 218 °C

Nc1nnc(-c2cccnc2)[nH]1
melting point: 207 to 209 °C

CC1(c2ccccc2)NC(=O)N(N)C1=O (centres undefined)
melting point: 169 to 171 °C

O=C(O)C1=CCCO1
melting point: 98 to 100 °C

CC(C)Cc1ccc(C(=O)c2cccs2)cc1
melting point: 112 to 114 °C

CC1CCc2sc(C(=O)O)cc2C1 (centres undefined)
melting point: 132 to 136 °C

CC(C)(C#N)N1CCN(C(C)(C)C#N)CC1
melting point: 182 to 184 °C

NCC(Cc1ccc(F)cc1)C(N)=O (centres undefined)
melting point: 119 to 121 °C

Nc1sc2c(c1C(=O)c1ccc(Cl)cc1)CCCC2
melting point: 139 to 141 °C

Cn1c(=O)[nH]cc(C(=O)O)c1=O
melting point: 233 to 235 °C

O=C1OC(C(=O)O)Cc2ccccc21 (centres undefined)
melting point: 151 to 153 °C

CC(C)Oc1ccc(S(=O)(=O)N(C)C)cc1N
melting point: 111 to 113 °C

CSCCC(NC(=O)c1ccco1)C(=O)O (centres undefined)
melting point: 185 to 187 °C

O=C(O)c1cnc2c(cnn2Cc2cccnc2)c1
melting point: 248 to 250 °C

CCOc1cc(C=O)cc(Br)c1OC
melting point: 52 to 54 °C

Nc1ccc(OCc2ccncc2)cc1
melting point: 129 to 131 °C

NC(=O)c1coc(Br)c1
melting point: 165 to 167 °C

Cc1cccc(N)c1C(=O)N1CCCC1
melting point: 87 to 89 °C

CC12CCC(CC1=NNC(=O)CCl)C2(C)C (centres undefined)
melting point: 185 to 187 °C

Cc1cc(C=O)c(C)n1-c1nccs1
melting point: 43 to 45 °C

CC(C)CCNS(=O)(=O)c1ccc(N)cc1
melting point: 119 to 121 °C

O=C1OC(=O)c2cc(Cl)ccc21
melting point: 96 to 98 °C

Nc1cccc2c1CC(O)C2 (centres undefined)
melting point: 125 to 127 °C

CCn1c(=O)c(=O)[nH]c2cc(C(=O)O)ccc21
melting point: 270 to 285 °C

COc1ccc(C(N)C(=O)O)cc1OC (centres undefined)
melting point: 218 to 220 °C

N#Cc1ccccc1Oc1ccc(N)cc1
melting point: 118 to 120 °C
